In patent publication US8173863B2, “Sucrose biosensors and methods of using the same” (Carnegie Institution of Washington, priority 2005, dated 2012):

Assays:
[1] = target: Agrobacterium tumefaciens ThuE (AtThuE) sucrose binding protein carrying N192D (SEQ ID NO: 2) fused between ECFP and EYFP, sensor FLIPsuc4μ (FLIPsuc), wt (indic (Agrobacterium fabrum, UniProt A9CF11, N212D)); assay: in vitro FRET titration of purified sensor FLIPsuc4μ; conditions: for recognition (binding): even after addition of higher sugar concentrations (50× Kd); for binding (extent relative to sucrose): 5× Kd (20 μM), FRET micro plate assay (FIG. 4); for affinity relative to that for sucrose: FIG. 1C titration curves; for Δratio (maximum ratio change): in vitro, no binding to saturated binding
Description: (§1) Because the maltose/trehalose/sucrose binding protein from Agrobacterium tumefaciens (AtThuE) is 78.9% identical over predicted mature region of the SmThuE protein (SEQ ID NO: 2) and is 21.4% homologous to the maltose binding protein from E. coli (malE), we attempted to clone the AtThuE binding protein. To isolate the gene, a PCR product from genomic Agrobacterium tumefaciens (strain C58C1) DNA encoding mature AtThuE without signal sequence and stop codon was cloned into the KpnI site between ECFP and EYFP genes (FIG. 1A). The chimeric gene was inserted into pRSET (Invitrogen) and transferred to E. coli BL21(DE3)Gold (Stratagene). […] It is unknown whether this difference corresponds to a mutation or natural variation. Since N192D was outside the binding pocket and since AtThuE carrying the mutation was functional as a sugar sensor (see Table 1), all further experiments were carried out with the nanosensor named FLIPsuc4μ carrying the mutation N192D. FLIPsuc proteins were extracted from BL21(DE3)gold and purified as described (Fehr et al. 2002).
(§2) A DNA fragment encoding the mature Agrobacterium tumefaciens maltose/trehalose/sucrose BP protein was fused between the ECFP and EYFP sequences as described above. The chimeric gene was expressed in E. coli and the protein product purified and assayed for substrate specificity.
(§3) Substrate titration curves and substrate specificity analysis were performed on Safire (Tecan) fluorometer. ECFP was excited at 433 nm and emission was set to 485 nm and 528 nm for ECFP and EYFP, respectively (bandwidth 12 nm). All in vitro analyses were performed in 20 mM MOPS buffer at pH 7. FRET was determined as EYFP-ECFP emission intensity ratio. Using the change in ratio upon ligand binding, binding constants (Kd) were determined by fitting substrate titration curves to equation 1: S=1−(r−rmin)(rmax−rmin)=[S]b/[P]t=n[S]/(Kd+[S]), where [S] is substrate concentration; [S]b, concentration of bound substrate; n, number of binding sites; [P]t, total concentration of binding protein; r, ratio; rmin, minimum ratio in absence of ligand; rmax, maximum ratio at saturation. Hill coefficients were determined using Hill equation 2: S=(n[S]^n)/(Kd+[S]^n).
(§4) SmThuE is mainly functioning as a trehalose and maltose binding protein. Sucrose is thought to be transported to a lesser extent. FLIPsuc4μ was therefore incubated with trehalose, maltose and other related sugars to test for its binding capacities. Substrate-induced conformational changes were measured using FRET in micro plate assays. […] Maltose and glucose were chosen for further analysis of FLIPsuc4μ and its mutants since they are important sugars in plants and might therefore interfere with sucrose measurements in vivo. […] Most mutants show similar patterns with higher affinity for maltose than sucrose. FLIPsuc-10μ is the most significant example with an 83 times higher affinity for maltose than sucrose (Table 1). The D115 mutants both show the highest affinity for maltose compared to sucrose and […], but to a different extent.

[2] = tested on: Alicyclobacillus acidocaldarius maltose uptake; conditions: cited from earlier work
[3] = target: Agrobacterium tumefaciens AtThuE sensor FLIPsuc4μ variant D115A (FLIPsuc1m, FLIPsucD115A) (Agrobacterium fabrum, UniProt A9CF11, D135A/N212D); assay: in vitro FRET titration of affinity mutant FLIPsuc1m; type: binding; conditions: for Δratio (delta ratio): no binding to saturated binding
Protocol: as §3
(§5) To expand the dynamic range of the sucrose sensor, site directed mutagenesis was used as described above to lower the binding affinity of the sucrose binding domain. Affinity mutants of FLIPsuc4μ were generated. Alignment together with modeling of AtThuE with maltose binding proteins that have been crystallized helped predict residues important for ligand binding. […] Mutant forms carrying substitutions F113A, D115A, D115E, D115N, W244A, Y246A and W283A were generated using Kunkel mutagenesis (Kunkel et al. 1991) in the mutant background of FLIPsuc41t. The affinity mutants were designated as FLIPsucF113A, FLIPsucW283A, FLIPsucD115A, FLIPsucD115E, FLIPsucY246A, and FLIPsucW244A. All six mutants have lower affinities for sucrose than that of FLIPsuc4μ, with a Kd value varying from 10 μM to the higher mM range (Table 1). The starting ratio between EYFP and ECFP ranges from 1.4 to close to 2.0, which is also similar to what has been seen in other sugar sensors (FLIPmal, FLIPglu and FLIPrib). Introducing substitution F113A into the ThuE moiety of FLIPsuc4μ produced FLIPsuc10μ, which has a binding constant (Kd) of 10 μM for sucrose, thus providing a range for sucrose quantification between at least 1 μM and 90 μM (Table 1).

[4] = target: Agrobacterium tumefaciens AtThuE sensor FLIPsuc4μ variant F113A (FLIPsuc10μ, FLIPsucF113A) (Agrobacterium fabrum, UniProt A9CF11, F133A/N212D); assay: in vitro FRET titration of affinity mutant FLIPsuc10μ; type: binding; conditions: for Δratio (change in ratio): in vitro, no binding to saturated binding
Protocol: as §3, §5

[5] = target: Agrobacterium tumefaciens AtThuE sensor FLIPsuc4μ variant D115E (FLIPsuc3m, FLIPsucD115E) (Agrobacterium fabrum, UniProt A9CF11, D135E/N212D); assay: in vitro FRET titration of affinity mutant FLIPsuc3m; type: binding; conditions: for Δratio (delta ratio): no binding to saturated binding
Protocol: as §3, §5

[6] = target: Agrobacterium tumefaciens AtThuE sensor FLIPsuc4μ variant W283A (FLIPsuc88μ, FLIPsucW283A) (Agrobacterium fabrum, UniProt A9CF11, N212D/W303A); assay: in vitro FRET titration of affinity mutant FLIPsuc88μ; type: binding; conditions: for Kd / Δratio: in vitro; for Δratio: no binding to saturated binding
Protocol: as §3, §5

[7] = target: Agrobacterium tumefaciens AtThuE sensor FLIPsuc4μ variant Y246A (FLIPsuc15m, FLIPsucY246A) (Agrobacterium fabrum, UniProt A9CF11, N212D/Y266A); assay: in vitro FRET titration of affinity mutant FLIPsuc15m; type: binding; conditions: for Δratio: in vitro, no binding to saturated binding
Protocol: as §3, §5

[8] = target: Agrobacterium tumefaciens ThuE (AtThuE) sucrose binding protein carrying N192D (SEQ ID NO: 2) fused between ECFP and EYFP, sensor FLIPsuc4μ (FLIPsuc), wt (indicator SEQ ID NO: 4) (Agrobacterium fabrum, UniProt A9CF11, N212D); assay: in vitro FRET titration of purified sensor FLIPsuc4μ
Description: as §1, §2, §3, §4

[9] = target: Agrobacterium tumefaciens AtThuE sensor FLIPsuc4μ variant W244A (FLIPsuc46m, FLIPsucW244A) (Agrobacterium fabrum, UniProt A9CF11, N212D/W264A); assay: in vitro FRET titration of affinity mutant FLIPsuc46m; type: binding; conditions: for Δratio: in vitro, no binding to saturated binding
Protocol: as §3, §5

[10] = target: Alicyclobacillus acidocaldarius maltose binding protein (AaMalE); conditions: cited from earlier work
[11] = target: Agrobacterium tumefaciens AtThuE sensor FLIPsuc4μ variant D115N (Agrobacterium fabrum, UniProt A9CF11, D135N/N212D); assay: FRET ratio change of D115N mutant; type: binding
Protocol: as §3
To expand the dynamic range of the sucrose sensor, site directed mutagenesis was used as described above to lower the binding affinity of the sucrose binding domain. Affinity mutants of FLIPsuc4μ were generated. Alignment together with modeling of AtThuE with maltose binding proteins that have been crystallized helped predict residues important for ligand binding. […]

[12] = target: Agrobacterium tumefaciens AtThuE sensor FLIPsucW283A with linker shortened by 18 amino acids (FLIPsucW283A-18AA, FLIPThuEW283A-18AA) (Agrobacterium fabrum, UniProt A9CF11, N212D/W303A); assay: FRET ratio change of short-linker sensor FLIPsucW283A-18AA; type: binding; conditions: FIG. 3
Protocol: as §3
In an attempt to improve the delta ratio of the sucrose sensor the sensor containing the W283A mutation was cloned into a construct with a shorter linker sequence between the GFP variants and the binding protein. Deuschle et al. (2005) has shown that the length of the linker sequence plays a major role in the maximum change in ratio. A construct corresponding to FLIPglu600μΔ5 was constructed which gives a sucrose sensor whose linker was shortened by 18 amino acids (FLIPsucW283A-18AA). […]

[13] = 20 mM MOPS pH 7, FRET titration

## OCC1(O)OC[C@@H](O)[C@@H](O)[C@@H]1O (some centres unmarked) [Fructose]
[1]
  recognition (binding): not recognized

## C[C@H]1O[C@H](O[C@H]2[C@H](O)[C@@H](O)[C@@H](O[C@H]3[C@H](O)[C@@H](O)C(O)O[C@@H]3CO)O[C@@H]2CO)[C@H](O)[C@@H](O)[C@@H]1N[C@H]1C=C(CO)[C@@H](O)[C@H](O)[C@H]1O (some centres unmarked) [acarbose]
[2]
  inhibition of uptake of radiolabeled maltose: inhibited

## OC[C@H]1O[C@@H](O[C@H]2[C@H](O)[C@@H](O)C(O)O[C@@H]2CO)[C@H](O)[C@@H](O)[C@@H]1O (some centres unmarked) [cellobiose]
[1]
  recognition (binding): not recognized

## OC[C@H]1OC(O)[C@H](O)[C@@H](O)[C@H]1O (some centres unmarked) [galactose]
[1]
  recognition (binding): not recognized

## OC[C@H]1OC(O)[C@H](O)[C@@H](O)[C@@H]1O (some centres unmarked) [glucose]
[3]; [13]
  Kd: 16200 µM
[3]; FRET titration
  Kd: 16000 µM
[3]
  Δratio (delta ratio): 0.50
[4]
  Kd: 106 µM
  Δratio (change in ratio): 0.12
[5]; [13]
  Kd: 9110 µM
[5]; FRET titration
  Kd: 9100 µM
[5]
  Δratio (delta ratio): 0.44
[6]; [13]
  Kd: 7210 µM
[6]; FRET titration
  Kd: 7200 µM
[6]
  Δratio: 0.21
[7]
  Kd: 554 µM
  Δratio: 0.07
[8]
  Kd: 27 µM
[1]
  binding (extent relative to sucrose): to lesser extent
  affinity relative to that for sucrose: in the same range as that for sucrose
  Δratio (maximum ratio change): 0.18

## OC[C@H]1O[C@H](O[C@H]2[C@H](O)[C@@H](O)C(O)O[C@@H]2CO)[C@H](O)[C@@H](O)[C@@H]1O (some centres unmarked) [maltose]
[3]; [13]
  Kd: 51 µM
[3]
  Δratio (delta ratio): 0.37
[4]
  Kd: 0.12 µM
  Δratio (change in ratio): 0.12
[5]; [13]
  Kd: 1530 µM
[5]; FRET titration
  Kd: 1500 µM
[5]
  Δratio (delta ratio): 0.39
[9]
  Kd: 26500 µM
  Δratio: 0.42
[6]; [13]
  Kd: 265 µM
[6]
  Δratio: 0.25
[7]
  Kd: 56 µM
  Δratio: 0.14
[8]
  Kd: 0.23 µM
[1]
  binding (extent relative to sucrose): to the same extent or better than sucrose
  affinity relative to that for sucrose: higher
  Δratio (maximum ratio change): 0.21
[10]
  Kd: 1.5 µM

## OC[C@H]1O[C@H](O[C@H]2[C@H](O)[C@@H](O)[C@@H](O[C@H]3[C@H](O)[C@@H](O)[C@@H](O[C@H]4[C@H](O)[C@@H](O)C(O)O[C@@H]4CO)O[C@@H]3CO)O[C@@H]2CO)[C@H](O)[C@@H](O)[C@@H]1O (some centres unmarked) [maltotetraose]
[2]
  inhibition of uptake of radiolabeled maltose: inhibited

## OC[C@H]1O[C@H](OC[C@H]2OC(O)(CO)[C@@H](O)[C@@H]2O)[C@H](O)[C@@H](O)[C@@H]1O (some centres unmarked) [palatinose]
[1]
  binding (extent relative to sucrose): to lesser extent

## OC[C@H]1O[C@@](CO)(O[C@H]2O[C@H](CO)[C@@H](O)[C@H](O)[C@H]2O)[C@@H](O)[C@@H]1O [sucrose]
[3]; [13]
  Kd: 1350 µM
[3]; FRET titration
  Kd: 1400 µM
[3]
  Δratio (delta ratio): at least 0.6
[3]; listed as Sucrose
  Δratio (delta ratio): 0.68
[4]
  Kd: 10 µM
  Δratio (change in ratio): 0.1-0.15
[4]; listed as Sucrose
  Δratio (change in ratio): 0.12
[5]; [13]
  Kd: 2870 µM
[5]; FRET titration
  Kd: 2900 µM
[5]
  Δratio (delta ratio): ~0.4
[5]; listed as Sucrose
  Δratio (delta ratio): 0.36
[9]
  Kd: 46200 µM
  Δratio: 0.4
[6]; [13]
  Kd: 88 µM
[6]
  Δratio: 0.29
[6]; ratio of Kd
  affinity for sucrose relative to maltose: three times higher than for maltose
[11]
  change in ratio upon addition of sucrose: no longer seen
[12]
  ratio change relative to original construct (FLIPsucW283A): 3 fold
[7]
  Kd: 14600 µM
  Δratio: 0.14
[8]
  Kd: 3.7 µM
[1]; concentration-dependent, FIG. 1B
  change in FRET on titration: concentration-dependent decrease in FRET
[1]; listed as Sucrose
  Δratio (maximum ratio change): 0.18
[1]; sucrose titration, pH 7
  Hill coefficient: 1.04

## OC[C@H]1O[C@H](O[C@H]2O[C@H](CO)[C@@H](O)[C@H](O)[C@H]2O)[C@H](O)[C@@H](O)[C@@H]1O [trehalose]
[1]
  binding (extent relative to sucrose): to the same extent or better than sucrose

## OC[C@H]1OC(O)(CO)[C@@H](O[C@H]2O[C@H](CO)[C@@H](O)[C@H](O)[C@H]2O)[C@@H]1O (some centres unmarked) [turanose]
[1]
  binding (extent relative to sucrose): to the same extent or better than sucrose

## cyclodextrins
[2]
  inhibition of uptake of radiolabeled maltose: inhibited
